“Also recorded” adds a separate entry of the source.
Legend:
Format in all cases: cell-based
human T cells = test: T cell proliferation by CFSE dilution in the presence of ATP; conditions: Homo sapiens, read-out: IC50, restoration of T cell proliferation
Experimental: Human T cells were activated in the presence of 100 μM ATP and dilazep or Compound 1 and proliferation was monitored by CarboxyFluoroscein Succinimidyl Ester (CFSE) dilution. […] (See FIG. 27B.)

ENT1 = molecular target: T1, ENT1 (Homo sapiens, UniProt Q99808); test: ENT1 transport inhibition assay (uridine transport)
T1 sequence (Q99808 1-456): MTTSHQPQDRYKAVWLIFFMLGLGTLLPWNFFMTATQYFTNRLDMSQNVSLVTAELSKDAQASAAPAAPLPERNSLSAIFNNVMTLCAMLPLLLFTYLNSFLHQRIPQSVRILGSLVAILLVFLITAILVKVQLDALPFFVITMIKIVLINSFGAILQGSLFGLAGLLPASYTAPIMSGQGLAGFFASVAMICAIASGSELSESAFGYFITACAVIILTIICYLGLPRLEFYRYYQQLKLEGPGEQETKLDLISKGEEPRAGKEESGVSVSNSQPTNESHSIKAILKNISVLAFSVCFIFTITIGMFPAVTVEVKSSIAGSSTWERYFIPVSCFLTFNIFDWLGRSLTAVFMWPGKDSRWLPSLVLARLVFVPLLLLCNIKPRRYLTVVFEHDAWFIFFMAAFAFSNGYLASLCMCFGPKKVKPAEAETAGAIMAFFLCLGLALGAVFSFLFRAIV

[1] = tested on: tumor infiltrating T cells; test: T cell proliferation in dissociated human tumor cell suspension cultures with ATP; conditions: 500 μM ATP; CD3/CD28 microbeads and IL-2; Compound 1 300 nM; anti-PD-1 10 μg/mL; 3 days
Experimental: Human tumors were dissociated, and cells were CFSE-labelled and stimulated with CD3/CD28 microbeads and IL-2 in the presence of 500 μM of ATP as a source of adenosine.
Human tumor pieces were rinsed with cold PBS and cut into 1 to 2 mm fragments with a scalpel blade and transferred into GentleMACS C tubes. Dissociation of the tissue was completed with the Tumor Dissociation kit (Miltenyi Biotec) according to the manufacturer's instruction. Briefly, 5 mL of dissociation solution—containing 200 μL of enzyme H, 20 μL of enzyme R and 25 μL of enzyme A and RPMI until 5 mL—was added per gram of tumor. The tube was placed in the gentleMACS dissociator and the 1st program was run. An incubation step of 30 minutes at 37° C. was applied with rotation (MACSmix tube rotator). After this incubation, a quick centrifugation (30×rcf, 1 min) was performed, the supernatant containing dissociated cells was collected in a new tube containing FBS (30% of the total volume with supernatant) and placed at 4° C. […] A short centrifugation was performed, the cells in supernatant were pooled with the 1st collection and filtered through a 100 μm cell strainer which was washed with 10 mL RPMI 10% FBS 2% P/S. After centrifugation at 350×rcf for 10 min, cells were resuspended in 20 mL RPMI 10% FBS 2% P/S and counted with a haemocytometer. […]

## COc1cc(C(=O)O[C@@H]2CCCOc3cc(cc(OC)c3OC)C(=O)NCCCN3CCCN(CC2)CC3)cc(OC)c1OC [Compound 1, (12R)-7^4,7^5-dimethoxy-6-oxo-8-oxa-5-aza-1(1,4)-diazepana-7(1,3)-benzenacyclotetradecaphane-12-yl 3,4,5-trimethoxybenzoate]
Human T cells
  IC50: 0.06 nM
ENT1
  Potency of inhibition of ENT1-mediated uridine transport (in words): nanomolar potency
ENT1; read-out: IC50, ENT1 inhibition (ENT1-mediated uridine transport)
  IC50: 2.2 nM
[1]
  Rescue of T cell proliferation suppressed by ATP: restored; also recorded: partially reversed
